Data on 5 compounds can be found in patent US5510332A, “Process to inhibit binding of the integrin α4 62 1 to VCAM-1 or fibronectin and linear peptides therefor” (priority 1994, dated 1996).

Where a SMILES comes first, the peptide text is derived from it. Where no end group is shown, it is not given here.

The target in assay [1] is T1, binding of α4 β1 integrin to VCAM-1 (Homo sapiens, UniProt P05556+P13612).
T1 construct: endogenous in cells; host or cells: Ramos (human B-cell line) for endogenous α4β1; the VCAM-mouse IgG fusion was made in house, secreted from transfected COS cells and captured on goat anti-mouse IgG Dynal beads
T1 sequence (P13612 34-1032): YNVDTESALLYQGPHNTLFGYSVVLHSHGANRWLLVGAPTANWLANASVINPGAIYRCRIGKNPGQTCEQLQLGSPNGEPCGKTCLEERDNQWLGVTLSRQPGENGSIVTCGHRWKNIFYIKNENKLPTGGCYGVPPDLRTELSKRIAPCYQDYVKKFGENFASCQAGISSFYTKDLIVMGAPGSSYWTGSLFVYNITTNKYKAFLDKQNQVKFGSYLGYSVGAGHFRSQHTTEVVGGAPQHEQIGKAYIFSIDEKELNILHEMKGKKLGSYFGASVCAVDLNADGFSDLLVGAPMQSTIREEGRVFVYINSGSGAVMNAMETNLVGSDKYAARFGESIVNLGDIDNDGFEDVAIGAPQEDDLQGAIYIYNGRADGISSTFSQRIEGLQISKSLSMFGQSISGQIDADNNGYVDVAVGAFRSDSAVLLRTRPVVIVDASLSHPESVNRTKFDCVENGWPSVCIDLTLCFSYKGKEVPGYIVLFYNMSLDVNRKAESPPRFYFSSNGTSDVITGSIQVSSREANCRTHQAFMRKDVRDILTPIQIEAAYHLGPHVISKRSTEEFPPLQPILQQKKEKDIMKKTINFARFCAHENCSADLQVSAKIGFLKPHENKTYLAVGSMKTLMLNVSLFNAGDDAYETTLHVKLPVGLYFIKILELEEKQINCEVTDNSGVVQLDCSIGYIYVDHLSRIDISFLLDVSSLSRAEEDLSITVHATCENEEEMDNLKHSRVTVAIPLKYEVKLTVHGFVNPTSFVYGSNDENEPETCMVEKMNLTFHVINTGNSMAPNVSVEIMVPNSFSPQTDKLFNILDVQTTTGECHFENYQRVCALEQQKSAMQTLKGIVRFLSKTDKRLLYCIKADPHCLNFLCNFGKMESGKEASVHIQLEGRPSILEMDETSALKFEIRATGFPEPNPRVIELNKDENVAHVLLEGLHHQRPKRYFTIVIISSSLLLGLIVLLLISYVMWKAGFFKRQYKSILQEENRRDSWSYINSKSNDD
T1 sequence (P05556 21-798): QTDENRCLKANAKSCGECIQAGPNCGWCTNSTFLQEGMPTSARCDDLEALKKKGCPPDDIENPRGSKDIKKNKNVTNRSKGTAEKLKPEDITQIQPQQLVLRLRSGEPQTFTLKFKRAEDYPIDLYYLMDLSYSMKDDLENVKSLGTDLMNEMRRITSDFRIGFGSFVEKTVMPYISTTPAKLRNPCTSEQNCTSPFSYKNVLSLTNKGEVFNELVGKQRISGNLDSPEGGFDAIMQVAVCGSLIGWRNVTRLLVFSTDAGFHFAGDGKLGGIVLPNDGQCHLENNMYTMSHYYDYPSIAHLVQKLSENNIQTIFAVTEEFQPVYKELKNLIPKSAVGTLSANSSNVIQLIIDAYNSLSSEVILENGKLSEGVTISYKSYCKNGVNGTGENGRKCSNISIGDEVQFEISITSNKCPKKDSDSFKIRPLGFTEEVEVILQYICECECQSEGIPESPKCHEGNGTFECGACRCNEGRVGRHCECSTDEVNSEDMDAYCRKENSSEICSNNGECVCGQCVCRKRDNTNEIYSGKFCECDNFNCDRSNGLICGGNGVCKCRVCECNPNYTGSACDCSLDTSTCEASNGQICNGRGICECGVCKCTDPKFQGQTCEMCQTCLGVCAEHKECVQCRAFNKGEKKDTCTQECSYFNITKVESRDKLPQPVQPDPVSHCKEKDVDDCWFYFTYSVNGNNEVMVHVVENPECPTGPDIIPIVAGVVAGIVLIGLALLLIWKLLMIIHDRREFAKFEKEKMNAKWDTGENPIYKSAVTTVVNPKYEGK
Kind of assay: Cell-protein assay: calcein-labelled Ramos cells binding to VCAM-mouse IgG fusion protein on magnetic beads. The conditions noted are these: for peptide concentration at which binding of α4 β1 to VCAM-1 is significantly inhibited: less than about 100, assay format not stated. Format: cell-based. From the text:
The VCAM-1 binding assays involved assessing the ability of cells that express α4 β1 to bind cells expressing VCAM (cell-cell assay) or to bind purified VCAM protein (cell-protein assay). The integrin-expressing cell types used in these assays included the human B-cell line, Ramos, and the human promyelocytic line, HL-60. The cell-cell assay was used to compare the relative potency of peptides at a single dose. The cell-protein assay was used to generate dose response curves and determine IC50 values.
An expression vector was designed such that a region of VCAM known to bind the integrin was-expressed as a fusion protein with mouse IgG. A cDNA containing the two N-terminal domains of human VCAM was generated by the polymerase chain reaction (PCR) from a full length VCAM cDNA. Similarly, a cDNA containing the hinge, CH2 and CH3 regions of mouse IgG2A was amplified by PCR from cDNA made from total RNA isolated from the hybridoma cell line 402C10. The VCAM cDNA was ligated to the mouse IgG cDNA and cloned into a mammalian expression vector. […] The media was collected and active protein was purified by immunoprecipitation using Dynal magnetic polystyrene beads coated with goat anti-mouse IgG. Following immunoprecipitation, the beads bound Ramos cells that expressed the integrin α4 β1.
Ramos cells were fluorescently labeled with calcein AM (Molecular Probes) and resuspended in 1 ml of binding buffer (Hanks' balanced salt solution, pH 7.4, 1.0 mM CaCl2, 1.0 mM MgCl2 and 1.0 mM MnCl2). The beads (10 μl, 4×10^6 beads/ml) were placed in wells of a 96-well microtiter dish with 10 μl of peptide at various concentrations. The beads were incubated with 10 μl of labeled cells (10^7 cells/ml) for 10 min at room temperature. Following immobilization of the beads onto the plastic with a magnet, unbound cells were removed by washing three times with binding buffer. The remaining bound cells were lysed in 50 mM Tris, pH 7.4, 5.0 mM EDTA, 1.0% NP-40 and quantitated by fluorimetry using a Millipore Cytofluor 2350 fluorimeter. Dose response curves were calculated and IC50 values determined. Peptides having the amino acid residue sequences of SEQ ID NOs:8-102 were tested for their ability to inhibit the binding of α4 β1 integrin to VCAM-1.

Assay [2] addresses T2, binding of the integrin α4 β1 to VCAM (Homo sapiens, UniProt P05556+P13612).
T2 construct: endogenous in cells; host or cells: Ramos (human B-cell line) for endogenous α4β1; CHO cells stably transfected with human VCAM cDNA for the counter-receptor
Kind of assay: Cell-cell assay: 35S-labelled Ramos cells binding to VCAM expressing CHO cells. The conditions noted are these: single concentration at which SEQ ID NO:9 gives approximately 50% inhibition of adhesion; SEQ ID NO:9 = 1.00; >2.00 indicates little or no inhibition of VCAM-α4 β1 binding. Format: cell-based. The source says: The VCAM-1 binding assays involved assessing the ability of cells that express α4 β1 to bind cells expressing VCAM (cell-cell assay) or to bind purified VCAM protein (cell-protein assay). The integrin-expressing cell types used in these assays included the human B-cell line, Ramos, and the human promyelocytic line, HL-60. The cell-cell assay was used to compare the relative potency of peptides at a single dose. The cell-protein assay was used to generate dose response curves and determine IC50 values. A human VCAM cDNA was amplified by the polymerase chain reaction (PCR) from cDNA reverse transcribed from RNA isolated from human umbilical vein endothelial cells. The VCAM cDNA was ligated into a mammalian expression vector and electroporated into chinese hamster ovary (CHO) cells. Cells were grown in G418 selective media and clones expressing high levels of VCAM were selected by FACS analysis. VCAM expressing CHO cells and nontransfected CHO cells were plated in 48 well cluster dishes at a density of 50,000 cells/well 24 hour prior to assay. The dishes were washed with binding buffer (DMEM, 1% BSA, 1.0 mM MnCl2, 0.02% sodium azide, pH 7.4) immediately prior to assay. […] Unbound cells were removed by washing with binding buffer and the remaining bound cells were lysed with 50 mM Tris, pH 8.0, 150 mM NaCl, 1% SDS and transferred to scintillation vials for quantitation.

T2 sequence (P13612 34-1032): as the sequence (P13612 34-1032) above
T2 sequence (P05556 21-798): as the sequence (P05556 21-798) above

For the compound “EWLDV-OH [SEQ ID NO:14, Glu-Trp-Leu-Asp-Val-acid]”, the “peptide concentration at which binding of α4 β1 to VCAM-1 is significantly inhibited” value in assay [1] is “less than 100 μM”.
The same measure, in the same setting: then `CC(=O)N[C@@H](Cc1c[nH]c2ccccc12)C(=O)N[C@@H](CC(C)C)C(=O)N[C@@H](CC(=O)O)C(=O)N[C@H](C(N)=O)C(C)C` [SEQ ID NO:11, Ac-Trp-Leu-Asp-Val-amide] (Ac-WLDV-NH2), with “less than 100 μM”; and `CC(C)C[C@H](NC(=O)[C@@H](N)Cc1ccccc1)C(=O)N[C@@H](CC(=O)O)C(=O)N[C@H](C(N)=O)C(C)C` [SEQ ID NO:25, Phe-Leu-Asp-Val-amide] (H-FLDV-NH2), with “less than 100 μM”.
Turning to “EWLDV-NH2 [SEQ ID NO:13, Glu-Trp-Leu-Asp-Val-amide]”, the “peptide concentration at which binding of α4 β1 to VCAM-1 is significantly inhibited” value in assay [1] is listed as “less than 100 μM”.
Usually IC50 stands for the concentration that inhibits the measured activity by half. Take “GPEWLDVP-NH2 [SEQ ID NO:9, Gly-Pro-Glu-Trp-Leu-Asp-Val-Pro-amide]”: the “relative quantity of adhered cells in relationship to peptide SEQ ID NO:9” value in assay [2] was 1.00. In assay [1] (independent cell-protein based assays), the IC50 was 30 µM.
